Source: ChEMBL document CHEMBL1212841, “Mycenaaurin A, an antibacterial polyene pigment from the fruiting bodies of Mycena aurantiomarginata” (2010)

Tested on: Bacillus pumilus
Experiment: Antimicrobial activity Bacillus pumilus at 0.5 umol/disk by disk diffusion method
Format: functional

Question: How did the “inhibition zone (IZ)” value turn out when `CC(=O)N[C@@H](CCO[C@H](C)C/C=C/CC[C@@H](O)C/C=C/C=C/C=C/C=C/C=C/C=C/c1cc(O)c(CC[C@H](N)C(=O)O)c(=O)o1)C(=O)O` [MYCENAAURIN A] was run?
Answer: Its value is 2.5 cm.
